Test results from patent US5095014A, “3-(2-chloro-4-(trifluoromethyl)phenoxy)-1-azetidine carboxamides having anticonvulsant activity” (A. H. Robins Company, Incorporated, priority 1990, dated 1992).

system: pentylenetetrazol-induced convulsions; assay: Metrazole Chemical Challenge (Swinyard Method); format: in vivo; conditions: Mus musculus, ip, 0.5 h; mice, intraperitoneal, 1/2 hour before Metrazole 80 mg/kg S.C.
Experimental: (§1) The pharmacological tests used are (1) maximal electroshock and (2) pentylenetetrazole (Metrazole®) chemical challenge where the percent protection afforded by the test compounds against convulsions induced by electrical stimulus or by the drug Metrazole is determined. These test procedures are described further hereinbelow.
(§2) The pharmacological test data are expressed either as an ED50 (mg/kg) or percent protection/dose (mg/kg) for test compounds administered intraperitoneally (IP) in mice.
Groups of 8 adult female mice were randomly assigned to dosage groups according to the method of Steel, R. G. D., and Torrie, J. H. (1960) in "Principles and Procedures of Statistics", McGraw-Hill Book Company, Inc., pp 99-100, pp 428-31. Each mouse was identified with a color code on its tail. The test compounds were administered as solutions or suspensions in 10 ml/kg mouse body weight of 0.5% aqueous methyl cellulose within 15 minutes of preparation of the suspension. Metrazole® (pentylenetetrazol) was prepared as a solution in physiological saline. The mice were not fasted prior to the test. Eight mice were tested at each dosage level.
Each mouse received one dose of the test drug (usually 100 mg/kg for screening) in the 0.5% aqueous methylcellulose or the control article (0.5% aqueous methylcellulose alone) intraperitoneally. Metrazole (80 mg/kg S.C.) was then given in a loose fold of skin on the back of the neck, 1/2 hour after the test compound or control article was given. All injections were given in a volume of 10 ml/kg mouse body weight. […] Anticonvulsant data were tabulated as the percent protection, i.e., [formula] […] Hefner Publishing Co.

For `NC(=O)N1CC(Oc2ccc(C(F)(F)F)cc2Cl)C1` [Example 1, 3-[2-Chloro-4-(trifluoromethyl)phenoxy]-1-azetidinecarboxamide], which ED50 is on record?
The ED50 was 11.5 mg/kg.

With `NC(=O)N1CC(Oc2ccc(Cl)cc2Cl)C1` [Example 11, 3-(2,4-Dichlorophenoxy)-1-azetidinecarboxamide] as the compound, how does the ED50 read?
Its ED50 is 31.6 mg/kg.

For `CNC(=O)N1CC(Oc2ccc(C(F)(F)F)cc2)C1` [Example 7, 3-(4-Trifluoromethylphenoxy)-N-methyl-1-azetidinecarboxamide], which ED50 is on record?
The ED50 was 33 mg/kg.

For `CNC(=O)N1CC(Oc2ccc(F)cc2Cl)C1` [Example 17, 3-(2-Chloro-4-fluorophenoxy)-N-methyl-1-azetidinecarboxamide], which ED50 is on record?
The ED50 was 32.8 mg/kg.

With `CNC(=O)N1CC(Oc2ccc(Cl)c(Cl)c2)C1` [Example 20, 3-(3,4-Dichlorophenoxy)-N-methyl-1-azetidinecarboxamide] as the compound, how does the ED50 read?
Its ED50 is 49.5 mg/kg.

For `CNC(=O)N1CC(Oc2ccc(Cl)cc2)C1` [Example 10, 3-(4-Chlorophenoxy)-N-methyl-1-azetidinecarboxamide], which ED50 is on record?
The ED50 was 50 mg/kg.

With `CNC(=O)N1CC(Oc2ccc(C(F)(F)F)cc2Cl)C1` [Example 2, 3-[2-Chloro-4-(trifluoromethyl)phenoxy]-N-methyl-1-azetidinecarboxamide] as the compound, how does the ED50 read?
Its ED50 is 11.3 mg/kg.

How did the ED50 turn out when `CNC(=O)N1CC(Oc2ccc(Cl)cc2Cl)C1` [Example 13, 3-(2,4-Dichlorophenoxy)-N-methyl-1-azetidinecarboxamide] was run?
The ED50 was 40.9 mg/kg.

same assay, conditions: mice, dose 10 mg/kg IP

For `C=CCNC(=O)N1CC(Oc2ccc(C(F)(F)F)cc2Cl)C1` [Example 3, 3-[2-Chloro-4-(trifluoromethyl)phenoxy]-N-(2-propenyl)-1-azetidinecarboxamide], which Metrazole % protected is on record?
The Metrazole % protected was 12.5%.

same assay, conditions: mice, dose 31.6 mg/kg IP

How did the Metrazole % protected turn out when `CN(C)C(=O)N1CC(Oc2ccc(C(F)(F)F)cc2Cl)C1` [Example 4, 3-[2-Chloro-4-(trifluoromethyl)phenoxy]-N,N-dimethyl-1-azetidinecarboxamide] was run?
Its Metrazole % protected is 37.5%.

same assay, conditions: mice, dose 36 mg/kg IP

`C=CCNC(=O)N1CC(Oc2ccc(C(F)(F)F)cc2Cl)C1` [Example 3, 3-[2-Chloro-4-(trifluoromethyl)phenoxy]-N-(2-propenyl)-1-azetidinecarboxamide] was tested. Which Metrazole % protected did it give?
The Metrazole % protected was 0%.

same assay, conditions: mice, dose 52 mg/kg IP

For `CN(C)C(=O)N1CC(Oc2ccc(C(F)(F)F)cc2Cl)C1` [Example 4, 3-[2-Chloro-4-(trifluoromethyl)phenoxy]-N,N-dimethyl-1-azetidinecarboxamide], which Metrazole % protected is on record?
Its Metrazole % protected is 0%.

same assay, conditions: mice, dose 100 mg/kg IP

Which Metrazole % protected does the source give for `CN(C)C(=O)N1CC(Oc2ccc(C(F)(F)F)cc2Cl)C1` [Example 4, 3-[2-Chloro-4-(trifluoromethyl)phenoxy]-N,N-dimethyl-1-azetidinecarboxamide] here?
The Metrazole % protected was 0%.

With `CNC(=O)N1CC(Oc2ccccc2Cl)C1` [Example 8, 3-(2-Chlorophenoxy)-N-methyl-1-azetidinecarboxamide] as the compound, how does the Metrazole % protected read?
Its Metrazole % protected is 0%.

`CNC(=O)N1CC(Oc2cccc(Cl)c2)C1` [Example 9, 3-(3-Chlorophenoxy)-N-methyl-1-azetidinecarboxamide] was tested. Which Metrazole % protected did it give?
Its Metrazole % protected is 37.5%.

same assay, conditions: mice, dose 120 mg/kg IP

Which Metrazole % protected does the source give for `CNC(=O)N1CC(Oc2ccccc2C(F)(F)F)C1` [Example 5, 3-[2-(Trifluoromethyl)phenoxy]-N-methyl-1-azetidinecarboxamide] here?
Its Metrazole % protected is 0%.

system: tonic seizures (electrically induced convulsions); assay: Maximal Electroshock (percent protection from tonic seizures); format: in vivo; conditions: Mus musculus, ip, 0.5 h; mice, intraperitoneal, 30 minutes prior to electrical challenge
Experimental: as §1, §2
Adult female mice in groups of eight were administered the test drug intraperitoneally (usually 100 mg/kg initially for screening) in liquid carrier (10 mg/ml), usually physiological saline or water, 30 minutes prior to electrical challenge. Animals were challenged electrically by placing brass electrodes on the corneas and applying an electrical stimulus (60 Hz, 5 m sec. pulse width, 34 mA intensity) for 0.2 seconds by way of a Grass Stimulator® and constant current unit and a Hunter Timer®. The absence of tonic seizures upon cessation of the stimuli was scored as protection in that animal. The number of animals protected from tonic seizures at a given dose of test drug was determined. […] EXP. THER. 96, 99-113.

With `CNC(=O)N1CC(Oc2c(C)cccc2Cl)C1` [Example 16, 3-(2-Chloro-6-methyphenoxy)-N-methyl-1-azetidinecarboxamide] as the compound, how does the ED50 read?
Its ED50 is 53 mg/kg.

How did the ED50 turn out when `NC(=O)N1CC(Oc2ccc(C(F)(F)F)cc2Cl)C1` [Example 1, 3-[2-Chloro-4-(trifluoromethyl)phenoxy]-1-azetidinecarboxamide] was run?
The ED50 was 8.5 mg/kg.

With `CNC(=O)N1CC(Oc2cccc(C(F)(F)F)c2)C1` [Example 6, N-Methyl-3-[3-(trifluoromethyl)phenoxy]-1-azetidinecarboxamide] as the compound, how does the ED50 read?
The ED50 was 29 mg/kg.

For `Cc1cccc(Cl)c1OC1CN(C(N)=O)C1` [Example 14, 3-(2-Chloro-6-methylphenoxy)-1-azetidinecarboxamide], which ED50 is on record?
Its ED50 is 81.5 mg/kg.

For `CN(C)C(=O)N1CC(Oc2ccc(C(F)(F)F)cc2Cl)C1` [Example 4, 3-[2-Chloro-4-(trifluoromethyl)phenoxy]-N,N-dimethyl-1-azetidinecarboxamide], which ED50 is on record?
Its ED50 is 8.2 mg/kg.

For `CNC(=O)N1CC(Oc2ccc(C(F)(F)F)cc2)C1` [Example 7, 3-(4-Trifluoromethylphenoxy)-N-methyl-1-azetidinecarboxamide], which ED50 is on record?
The ED50 was 25.7 mg/kg.

`CNC(=O)N1CC(Oc2ccc(F)cc2Cl)C1` [Example 17, 3-(2-Chloro-4-fluorophenoxy)-N-methyl-1-azetidinecarboxamide] was tested. Which ED50 did it give?
Its ED50 is 44.5 mg/kg.

Which ED50 does the source give for `CNC(=O)N1CC(Oc2ccc(Cl)c(Cl)c2)C1` [Example 20, 3-(3,4-Dichlorophenoxy)-N-methyl-1-azetidinecarboxamide] here?
The ED50 was 39.5 mg/kg.

`CNC(=O)N1CC(Oc2ccc(Cl)cc2)C1` [Example 10, 3-(4-Chlorophenoxy)-N-methyl-1-azetidinecarboxamide] was tested. Which ED50 did it give?
The ED50 was 23.8 mg/kg.

How did the ED50 turn out when `CNC(=O)N1CC(Oc2ccccc2C(F)(F)F)C1` [Example 5, 3-[2-(Trifluoromethyl)phenoxy]-N-methyl-1-azetidinecarboxamide] was run?
The ED50 was 125 mg/kg.

How did the ED50 turn out when `CNC(=O)N1CC(Oc2cccc(Cl)c2)C1` [Example 9, 3-(3-Chlorophenoxy)-N-methyl-1-azetidinecarboxamide] was run?
Its ED50 is 45.5 mg/kg.

Which ED50 does the source give for `CNC(=O)N1CC(Oc2ccc(C(F)(F)F)cc2Cl)C1` [Example 2, 3-[2-Chloro-4-(trifluoromethyl)phenoxy]-N-methyl-1-azetidinecarboxamide] here?
Its ED50 is 6.4 mg/kg.

How did the ED50 turn out when `C=CCNC(=O)N1CC(Oc2ccc(C(F)(F)F)cc2Cl)C1` [Example 3, 3-[2-Chloro-4-(trifluoromethyl)phenoxy]-N-(2-propenyl)-1-azetidinecarboxamide] was run?
Its ED50 is 9.5 mg/kg.

`CNC(=O)N1CC(Oc2ccc(Cl)cc2Cl)C1` [Example 13, 3-(2,4-Dichlorophenoxy)-N-methyl-1-azetidinecarboxamide] was tested. Which ED50 did it give?
The ED50 was 18.5 mg/kg.

same assay, conditions: mice, dose 17.8 mg/kg IP

How did the Electroshock % protected turn out when `NC(=O)N1CC(Oc2ccc(Cl)cc2Cl)C1` [Example 11, 3-(2,4-Dichlorophenoxy)-1-azetidinecarboxamide] was run?
Its Electroshock % protected is 0%.

For `CN(C)C(=O)N1CC(Oc2ccc(Cl)cc2Cl)C1` [Example 12, 3-(2,4-Dichlorophenoxy)-N,N,-dimethyl-1-azetidinecarboxamide], which Electroshock % protected is on record?
Its Electroshock % protected is 0%.

same assay, conditions: mice, dose 31.6 mg/kg IP

With `Cc1cccc(Cl)c1OC1CN(C(=O)N(C)C)C1` [Example 15, 3-(2-Chloro-6-methylphenoxy)-N,N-dimethyl-1-azetidinecarboxamide] as the compound, how does the Electroshock % protected read?
Its Electroshock % protected is 37.5-62.5%.

With `NC(=O)N1CC(Oc2ccc(Cl)cc2Cl)C1` [Example 11, 3-(2,4-Dichlorophenoxy)-1-azetidinecarboxamide] as the compound, how does the Electroshock % protected read?
Its Electroshock % protected is 100%.

With `CNC(=O)N1CC(Oc2cc(C(F)(F)F)ccc2F)C1` [Example 19, 3-[2-Fluoro-5-(trifluoromethyl)phenoxy]-N-methyl-1-azetidine-carboxamide] as the compound, how does the Electroshock % protected read?
The Electroshock % protected was 50%.

Which Electroshock % protected does the source give for `CN(C)C(=O)N1CC(Oc2ccc(Cl)cc2Cl)C1` [Example 12, 3-(2,4-Dichlorophenoxy)-N,N,-dimethyl-1-azetidinecarboxamide] here?
Its Electroshock % protected is 100%.

same assay, conditions: mice, dose 56.2 mg/kg IP

Which Electroshock % protected does the source give for `CNC(=O)N1CC(Oc2cc(C(F)(F)F)ccc2Cl)C1` [Example 18, 3-[2-Chloro-5-(trifluoromethyl)phenoxy]-N-methyl-1-azetidinecarboxamide] here?
The Electroshock % protected was 37.5%.

For `CNC(=O)N1CC(Oc2cc(C(F)(F)F)ccc2F)C1` [Example 19, 3-[2-Fluoro-5-(trifluoromethyl)phenoxy]-N-methyl-1-azetidine-carboxamide], which Electroshock % protected is on record?
The Electroshock % protected was 50%.

`CNC(=O)N1CC(Oc2ccccc2Cl)C1` [Example 8, 3-(2-Chlorophenoxy)-N-methyl-1-azetidinecarboxamide] was tested. Which Electroshock % protected did it give?
Its Electroshock % protected is 0%.

same assay, conditions: mice, dose 100 mg/kg IP

How did the Electroshock % protected turn out when `CNC(=O)N1CC(Oc2cc(C(F)(F)F)ccc2Cl)C1` [Example 18, 3-[2-Chloro-5-(trifluoromethyl)phenoxy]-N-methyl-1-azetidinecarboxamide] was run?
The Electroshock % protected was 50%.
